Experimental findings from ChEMBL document CHEMBL4130410, “Novel rhynchophylline analogues as microvascular relaxation agents for the treatment of microvascular dysfunction caused by diabetes” (Eur J Med Chem, 2017) are described below.

In assay [1] the test system is Thoracic aorta. Description: Vasorelaxant activity in rat thoracic aorta. Type of assay: functional, tissue-based.
Assay [2] deals with Mesenteric artery. Put plainly: Vasorelaxant activity in Sprague-Dawley rat endothelium intact mesentric artery rings assessed as inhibition of phenylephrine-induced contraction. Type of assay: functional, tissue-based.
For assay [3], the system named is Mesenteric artery. Description: Vasorelaxant activity in Sprague-Dawley rat endothelium intact mesentric artery rings assessed as inhibition of KCl-induced contraction. Format: functional, tissue-based.
The test system of assay [4] is Mesenteric artery. Description: Vasorelaxant activity in Sprague-Dawley rat endothelium denuded mesentric artery rings assessed as inhibition of phenylephrine-induced contraction. Format: functional, tissue-based.
The subject of assay [5] is Mesenteric artery. Put plainly: Vasorelaxant activity in Sprague-Dawley rat endothelium denuded mesentric artery rings assessed as inhibition of KCl-induced contraction. Type of assay: functional, tissue-based.
Assay [6] deals with Mesenteric artery. Put plainly: Vasorelaxant activity in Sprague-Dawley rat endothelium intact mesentric artery rings assessed as inhibition of phenylephrine-induced contraction in presence of non-selective calcium-activated K+ channel blocker TEA/VGCC blocker nifedipine. Format: functional, tissue-based.
The test system of assay [7] is Mesenteric artery. Put plainly: Vasorelaxant activity in endothelium intact mesentric artery rings isolated from streptozotocin-induced type-1 diabetic Sprague-Dawley rat model assessed as inhibition of phenylephrine-induced contraction. Format: functional, tissue-based.
In assay [8] the test system is Mesenteric artery. Description: Vasorelaxant activity in endothelium intact mesentric artery rings isolated from streptozotocin-induced type-1 diabetic Sprague-Dawley rat model assessed as inhibition of phenylephrine-induced contraction in presence of eNOS inhibitor L-NAME. Type of assay: functional, tissue-based.
Assay [9] deals with Mesenteric artery. Put plainly: Vasorelaxant activity in mesentric artery rings isolated from Sprague-Dawley rat assessed as inhibition of phenylephrine-induced contraction in presence of eNOS inhibitor L-NAME. Type of assay: functional, tissue-based.
Assay [10] deals with Thoracic aorta. Description: Potency index, ratio of rhynchophylline IC50 to compound IC50 for vasorelaxant activity in rat thoracic aorta. Type of assay: functional.
Assay [11] has as its system Rattus norvegicus. Put plainly: In vivo vasorelaxant activity in streptozotocin-induced type-1 diabetic Sprague-Dawley rat model assessed as increase in acetylcholine-induced endothelium dependent relaxation in mesentric artery rings at 20 mg/kg, po via gavage for 1 week starting from 8 week post diabetic induction. Format: functional, organism-based.
In assay [12] the test system is Rattus norvegicus. Put plainly: In vivo vasorelaxant activity in streptozotocin-induced type-1 diabetic Sprague-Dawley rat model assessed as inhibition of phenylephrine-induced contraction in mesentric artery rings at 20 mg/kg, po via gavage for 1 week starting from 8 week post diabetic induction. Format: functional, organism-based.
Assay [13] deals with Rattus norvegicus. Put plainly: In vivo vasorelaxant activity in streptozotocin-induced type-1 diabetic Sprague-Dawley rat model assessed as protection against eNOS loss in vessels at 20 mg/kg, po via gavage for 1 week starting from 8 week post diabetic induction by […] based assay. Type of assay: functional, organism-based.
For assay [14], the system named is Rattus norvegicus. Description: In vivo vasorelaxant activity in streptozotocin-induced type-1 diabetic Sprague-Dawley rat model assessed as protection against eNOS loss in vessels by measuring increase in eNOS protein expression at 20 mg/kg, po via gavage for 1 week starting from 8 week post diabetic induction by Western blot method. Format: functional, organism-based.

The source made the active and inactive calls. The rule behind the calls is not given here. Some results are limits rather than exact numbers.

What is called IC50 is the concentration at which inhibition is half-maximal. The term Emax denotes the greatest response seen or fitted, relative to the assay's reference. On to `COC(=O)C[C@H]1C[C@@H]2c3[nH]c4ccccc4c3CCN2C[C@H]1CCO`, for which the IC50 with Thoracic aorta [1] came to 0.199 µM; with Mesenteric artery [2], 0.092 µM; in the assay with Mesenteric artery [4], 5.15 µM. Moreover, the Emax in the assay on Mesenteric artery [2] worked out at 100%; in the assay with Mesenteric artery [4], 101%. Further, the inhibition result in the assay with Mesenteric artery [2] was “Dose-dependent effect”. The inhibition result in the assay on Mesenteric artery [3], in the assay on Mesenteric artery [5], in the assay on Mesenteric artery [6], in the assay on Mesenteric artery [8] and in the assay with Mesenteric artery [9] was “inactive” throughout. Besides, in the assay with Mesenteric artery [7], the inhibition entry is “Active”. In the assay with Thoracic aorta [10], the “Ratio IC50” value was “<=30”.
As to `COC(=O)CC1CC2c3[nH]c4ccccc4c3CCN2CC1CCO` (racemic), the IC50 in the assay on Thoracic aorta [1] was found to be 5.89 µM; in the assay with Mesenteric artery [2], 0.499 µM; in the assay with Mesenteric artery [4], 1.2 µM. In addition, the Emax in the assay on Mesenteric artery [2] stood at 99.9%; in the assay with Mesenteric artery [4] it was 99.7%. Besides, the inhibition result in the assay on Mesenteric artery [2] is “Dose-dependent effect”. Also, the inhibition result in the assay on Mesenteric artery [3], in the assay on Mesenteric artery [5], in the assay on Mesenteric artery [8] and in the assay with Mesenteric artery [9] was “inactive” throughout. Further, the inhibition entry in the assay on Mesenteric artery [6], in the assay with Mesenteric artery [7] and in the assay on Rattus norvegicus [12] was “Active” throughout. Also, the outcome in the assay on Rattus norvegicus [11], with Rattus norvegicus [13] and in the assay with Rattus norvegicus [14] was Active. In the assay with Thoracic aorta [10], the “Ratio IC50” value is “<=30”.
In the assay on Thoracic aorta [1], `CC[C@H]1CN2CC[C@]3(C(=O)Nc4ccccc43)[C@@H]2C[C@@H]1/C(=C/OC)C(=O)OC` had a half-maximal inhibitory concentration (IC50) of 174 µM.
As for `COC(=O)C[C@@H]1C[C@H]2c3[nH]c4ccccc4c3CCN2C[C@@H]1CCO`, the IC50 in the assay with Thoracic aorta [1] was determined as 3.69 µM; with Mesenteric artery [2], 7.79 µM; in the assay with Mesenteric artery [4], 49.9 µM. Further, the Emax stood at 99.1% in the assay with Mesenteric artery [2] and 86.3% in the assay with Mesenteric artery [4]. The inhibition result in the assay with Mesenteric artery [2] is “Dose-dependent effect”. The inhibition entry in the assay with Mesenteric artery [3], in the assay with Mesenteric artery [5], in the assay with Mesenteric artery [8] and in the assay with Mesenteric artery [9] was “inactive” throughout. Further, the inhibition result in the assay on Mesenteric artery [6] was “Active”. For the same compound, the “Ratio IC50” value in the assay with Thoracic aorta [10] is “<=30”.
